Measurements taken from patent publication US11921020B2, “Method of purifying tumor cells using shear stress” (UNIVERSITY OF IOWA RESEARCH FOUNDATION, priority 2011, dated 2024).

Legend:
[1] = tested on: PC-3 cells; assay: Fluid shear stress protocol (repeated passage through 30 gauge needle), cell viability; assay type: cell-based, human; conditions: for shear stress resistance of cells in PBS supplemented with the cation: 88 mM final concentration, n=1
Method: (§1) 5 mL of a 5×10^5 cell/mL suspension was placed into 10 mL glass beaker (Pyrex) and loaded into a 5 mL syringe (BD Biosciences #309603) by slowly drawing the cells into the syringe manually. A 30 gauge needle (BD Biosciences #305106) was then attached to the syringe and cells were pushed through at a constant flow rate by one of two methods:
Syringe Pump: A Harvard Apparatus PHD-2000 Infuse/Withdraw syringe pump was calibrated for the syringes being used and set to the appropriate flow rate (see Table I). After securing the syringe to the pump housing, a 6-inch small bore extension set (Smiths Medical MX448L) was used to connect the syringe and needle. The 10 mL beaker was secured at a 45-degree angle and the needle rested gently (without damaging the bevel) at the bottom of the beaker. The pump is then turned on and the cell suspension was collected into the beaker. The bore extension, still connected to the needle, was then removed from the syringe, and the syringe was removed from the pump. The cell suspension was re-loaded into the syringe as described above. In a standard assay, this process was repeated until cells have been passaged a total of ten times (control experiments were taken out to 15 passages). After each passage, 100 μL aliquots of cell suspension were removed from the glass beaker in duplicate for viability assays (described below). For non-shear stress treated control, cells which have been in suspension for the entire duration of the assay were aliquoted and treated as 100% viability controls.
(§2) 250 μL/sec flow rate: This is the most commonly used flow rate throughout this example. To facilitate throughput, some experiments at 250 μL/sec were done manually. Here, cell suspensions were prepared as above with one exception: the small bore extension was not used, rather the needle was directly secured to the syringe. Suspensions were pushed through the needle by hand and collected into a 10 mL glass beaker. To control the flow rate using this approach, a timer was zeroed before each needle passage and the time taken to push a given volume through the needle was measured. At each passage, the volume in milliliters was divided by the time in seconds to give flow rate in mL/sec. Data for figures was only obtained from shear stress assays in which the average flow rate over 10 passages was ±10 μL/sec of the targeted 250 μL/sec. […] Further, to assure reproducibility, most assays were repeated ten times or more.
Bioluminescence Imaging (BLI): 100 μL aliquots of shear stress-treated cells or control cells (those sitting in suspension through the duration of shear treatment) were loaded into a black 96 well plate (Costar) in duplicate. Each well was then diluted to 200 μL at final concentration of 150 μg/mL D-luciferin (Promega) using a multichannel pipette. Plates were incubated for 5 minutes at room temperature and then imaged for 5 minutes in an IVIS-100 (Xenogen). Bioluminescence measurements were collected using Living Image 2.50.1 software (Igor Pro). The photon flux of shear treated cells was divided by that of control cells to give % viability. All figures with BLI-derived viability data represent the average of at least 3 experiments.
Next, whether rearrangements of the cytoskeleton occur in response to shear stress and thereby imparts a protective advantage to cells was investigated. […]

[2] = tested on: MDA.MB.231 cells; assay: as above; assay type: cell-based, human
Method: as §1
as §2, with “more. […]” for “more.”

[3] = 20 nM for one hour before shear stress protocol
[4] = brief treatment prior to shear stress protocol

| SMILES | shear stress resistance of cells in PBS supplemented with the cation ([1]; 250 μL/sec) | survival curve under shear stress of cells in PBS supplemented with the cation ([1]; 250 μL/sec, calcium at same concentration as complete medium (129.4 μg/mL)) | cell death in treated cells versus DMSO treated controls after shear stress protocol [1, 3] | cell viability during pretreatment, before shear stress [1, 4] | cell death in treated cells versus DMSO treated controls after shear stress protocol [2, 3] | cell viability during pretreatment, before shear stress [2, 4] |
| --- | --- | --- | --- | --- | --- | --- |
| [Ca+2] [calcium] | rescues the shear stress resistance phenotype | not significantly different from the media control suspensions |  |  |  |  |
| C=C1[C@@H](C)[C@H]2[C@H](Cc3ccccc3)NC(=O)[C@]23[C@H](OC(C)=O)/C=C/[C@@](C)(O)C(=O)[C@@H](C)C/C=C/[C@H]3[C@@H]1O [cytochalasin-D] |  |  | over 3 fold | not affected | over 3 fold | not affected |
| [Ba] [barium] | equally susceptible to shear stress as cells in nominally calcium-free PBS |  |  |  |  |  |
